# Test results as given in patent US20250311727A1, “SUBSTITUTED 2-AMINOAZINES AND SALTS THEREOF, AND USE THEREOF AS HERBICIDAL ACTIVE SUBSTANCES” (BAYER AKTIENGESELLSCHAFT, priority 2022, published 2025).
# Tests used:
# Assay type in all cases: in vivo
# Abutilon theophrasti [1] = assay: Post-emergence herbicidal efficacy at 320 g/ha, ABUTH; conditions: rated visually after about 3 weeks vs untreated controls, 100% = plants have died
# Procedure, shortened: (§1)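 One-leaf-stage weeds, sandy loam pots, greenhouse; foliar spray of WP/EC, 0.5% additive, 600 L/ha water; visual rating at ~3 wk, 0–100% vs untreated.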
# Amaranthus retroflexus [2] = assay: Post-emergence herbicidal efficacy at 320 g/ha, AMARE; conditions: rated visually after about 3 weeks vs untreated controls, 100% = plants have died
# Procedure, shortened: as §1
# Digitaria sanguinalis [3] = assay: Post-emergence herbicidal efficacy at 320 g/ha, DIGSA; conditions: rated visually after about 3 weeks vs untreated controls, 100% = plants have died
# Procedure, shortened: as §1
# Echinochloa crus-galli [4] = assay: Post-emergence herbicidal efficacy at 320 g/ha, ECHCG; conditions: rated visually after about 3 weeks vs untreated controls, 100% = plants have died
# Procedure, shortened: as §1
# Kochia scoparia [5] = assay: Post-emergence herbicidal efficacy at 320 g/ha, KCHSC; conditions: rated visually after about 3 weeks vs untreated controls, 100% = plants have died
# Procedure, shortened: as §1
# Poa annua [6] = assay: Post-emergence herbicidal efficacy at 320 g/ha, POAAN; conditions: rated visually after about 3 weeks vs untreated controls, 100% = plants have died
# Procedure, shortened: as §1
# Setaria viridis [7] = assay: Post-emergence herbicidal efficacy at 320 g/ha, SETVI; conditions: rated visually after about 3 weeks vs untreated controls, 100% = plants have died
# Description: (§2) Unwanted plants/weeds: • ABUTH: Abutilon theophrasti • ALOMY: Alopecurus myosuroides • AMARE: Amaranthus retroflexus • DIGSA: Digitaria sanguinalis • ECHCG: Echinochloa crus-galli • KCHSC: Kochia scoparia • LOLRI: Lolium rigidum • MATIN: Matricaria inodora • POAAN: Poa annua • POLCO: Polygonum convolvulus • SETVI: Setaria viridis • STEME: Stellaria media • VERPE: Veronica persica • VIOTR: Viola tricolor A. Post-Emergence Herbicidal Efficacy at 320 g/ha
# Seeds of mono- and dicotyledonous weed plants were placed in plastic pots in sandy loam soil (doubly sown with in each case one species of mono- or dicotyledonous weed plants per pot), covered with soil and cultivated in a greenhouse under controlled growth conditions. 2 to 3 weeks after sowing, the test plants were treated at the one-leaf stage. The compounds of the invention, formulated in the form of wettable powders (WP) or as emulsion concentrates (EC), were applied to the green parts of the plants as aqueous suspension or emulsion with addition of 0.5% additive at a water application rate equivalent to 600 litres per hectare. After the test plants had been kept in the greenhouse under optimum growth conditions for about 3 weeks, the activity of the preparations was rated visually in comparison to untreated controls.
# (§3) For example, 100% activity=the plants have died, 0% activity=like control plants.
# Tables A1 to A10 below show the effects of selected compounds of the general formula (I) according to Table 1 on various harmful plants and at an application rate corresponding to 320 g/ha, which were obtained by the trial procedure specified above.
# Stellaria media [8] = assay: Post-emergence herbicidal efficacy at 320 g/ha, STEME; conditions: rated visually after about 3 weeks vs untreated controls, 100% = plants have died
# Procedure, shortened: as §1
# Veronica persica [9] = assay: Post-emergence herbicidal efficacy at 320 g/ha, VERPE; conditions: rated visually after about 3 weeks vs untreated controls, 100% = plants have died
# Procedure, shortened: as §1
# Amaranthus retroflexus [10] = assay: Post-emergence herbicidal efficacy at 80 g/ha, AMARE; conditions: rated visually after about 3 weeks vs untreated controls, 100% = plants have died
# Procedure, shortened: (§4)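 Greenhouse post-emergence spray, one-leaf stage (2–3 wk after sowing, sandy loam). Cpd as WP/EC, aqueous + 0.5% additive, 600 l/ha water. Visual rating ~3 wk post-treatment vs untreated; 0% = as control, 100% = plants dead.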
# Kochia scoparia [11] = assay: Post-emergence herbicidal efficacy at 80 g/ha, KCHSC; conditions: rated visually after about 3 weeks vs untreated controls, 100% = plants have died
# Procedure, shortened: as §4
# Veronica persica [12] = assay: Post-emergence herbicidal efficacy at 80 g/ha, VERPE; conditions: rated visually after about 3 weeks vs untreated controls, 100% = plants have died
# Procedure, shortened: as §4
# Viola tricolor [13] = assay: Post-emergence herbicidal efficacy at 80 g/ha, VIOTR; conditions: rated visually after about 3 weeks vs untreated controls, 100% = plants have died
# Description: as §2
# Seeds of monocotyledonous and dicotyledonous weeds and crop plants were placed in sandy loam in plastic or organic planting pots, covered with soil and cultivated in a greenhouse under controlled growth conditions. 2 to 3 weeks after sowing, the test plants were treated at the one-leaf stage. The compounds of the invention, formulated in the form of wettable powders (WP) or as emulsion concentrates (EC), were then sprayed onto the green parts of the plants as aqueous suspension or emulsion with addition of 0.5% additive at a water application rate of 600 l/ha (converted). After the test plants had been kept in the greenhouse under optimum growth conditions for about 3 weeks, the activity of the preparations was rated visually in comparison to untreated controls. For example, 100% activity=the plants have died, 0% activity=like control plants.
# Tables B1 to B11 below show the effects of selected compounds of the general formula (I) according to Table 1 on various harmful plants and an application rate corresponding to 80 g/ha, which were obtained by the experimental procedure mentioned above.
# Abutilon theophrasti [14] = assay: Pre-emergence herbicide efficacy at 320 g/ha, ABUTH; conditions: scored visually after about 3 weeks vs untreated controls, 100% = plants have died
# Procedure, shortened: (§5)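 Sandy loam pots, seeds covered with soil; WP/EC formulation applied to soil surface, 0.5% additive, 600 L/ha water. Greenhouse ~3 weeks. Visual % damage vs untreated (0% = like control, 100% = dead).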
# Amaranthus retroflexus [15] = assay: Pre-emergence herbicide efficacy at 320 g/ha, AMARE; conditions: scored visually after about 3 weeks vs untreated controls, 100% = plants have died
# Procedure, shortened: as §5
# Digitaria sanguinalis [16] = assay: Pre-emergence herbicide efficacy at 320 g/ha, DIGSA; conditions: scored visually after about 3 weeks vs untreated controls, 100% = plants have died
# Procedure, shortened: as §5
# Echinochloa crus-galli [17] = assay: Pre-emergence herbicide efficacy at 320 g/ha, ECHCG; conditions: scored visually after about 3 weeks vs untreated controls, 100% = plants have died
# Procedure, shortened: as §5
# Kochia scoparia [18] = assay: Pre-emergence herbicide efficacy at 320 g/ha, KCHSC; conditions: scored visually after about 3 weeks vs untreated controls, 100% = plants have died
# Procedure, shortened: as §5
# Lolium rigidum = assay: Pre-emergence herbicide efficacy at 320 g/ha, LOLRI; conditions: scored visually after about 3 weeks vs untreated controls, 100% = plants have died
# Description: as §2
# (§6) Seeds of mono- and dicotyledonous weed plants were placed in plastic pots in sandy loam soil (doubly sown with one species each of mono- or dicotyledonous weed plants per pot) and covered with soil. The compounds of the invention, formulated in the form of wettable powders (WP) or as emulsion concentrates (EC), were then applied to the surface of the covering soil as aqueous suspension or emulsion with addition of 0.5% additive at a water application rate of 600 litres per hectare (converted). After the treatment, the pots were placed in a greenhouse and kept under good growth conditions for the test plants. After about 3 weeks, the efficacy of the preparations was scored visually in comparison with untreated controls as percentages.
# as §3
# (§7) Tables C1 to C12 below show the effects of selected compounds of the general formula (I) according to Table 1 on various harmful plants and at an application rate corresponding to 320 g/ha, which were obtained by the trial procedure specified above.
# Matricaria inodora [19] = assay: Pre-emergence herbicide efficacy at 320 g/ha, MATIN; conditions: scored visually after about 3 weeks vs untreated controls, 100% = plants have died
# Description: as §2, §6, §3, §7
# Poa annua [20] = assay: Pre-emergence herbicide efficacy at 320 g/ha, POAAN; conditions: scored visually after about 3 weeks vs untreated controls, 100% = plants have died
# Procedure, shortened: as §5
# Setaria viridis [21] = assay: Pre-emergence herbicide efficacy at 320 g/ha, SETVI; conditions: scored visually after about 3 weeks vs untreated controls, 100% = plants have died
# Procedure, shortened: as §5
# Stellaria media [22] = assay: Pre-emergence herbicide efficacy at 320 g/ha, STEME; conditions: scored visually after about 3 weeks vs untreated controls, 100% = plants have died
# Procedure, shortened: as §5
# Veronica persica [23] = assay: Pre-emergence herbicide efficacy at 320 g/ha, VERPE; conditions: scored visually after about 3 weeks vs untreated controls, 100% = plants have died
# Procedure, shortened: as §5
# Amaranthus retroflexus [24] = assay: Pre-emergence herbicide efficacy at 80 g/ha, AMARE; conditions: scored visually after about 3 weeks vs untreated controls, 100% = plants have died
# Procedure, shortened: (§8)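 Visual scoring after about 3 weeks in the greenhouse, expressed as percent activity against untreated controls, where 100% means dead plants and 0% means no difference. Treatment was applied pre-emergence to the covering soil over sown seeds, as WP or EC in water with 0.5% additive, 600 l/ha.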
# Digitaria sanguinalis [25] = assay: Pre-emergence herbicide efficacy at 80 g/ha, DIGSA; conditions: scored visually after about 3 weeks vs untreated controls, 100% = plants have died
# Description: as §2
# (§9) Seeds of monocotyledonous and dicotyledonous weed plants and crop plants were placed in plastic or organic planting pots and covered with soil. The compounds of the invention, formulated in the form of wettable powders (WP) or as emulsion concentrates (EC), were then applied to the surface of the covering soil as aqueous suspension or emulsion with addition of 0.5% additive at a water application rate equivalent to 600 l/ha. After the treatment, the pots were placed in a greenhouse and kept under good growth conditions for the test plants. After about 3 weeks, the efficacy of the preparations was scored visually in comparison with untreated controls as percentages. For example, 100% activity=the plants have died, 0% activity=like control plants.
# (§10) Tables D1 to D12 below show the effects of selected compounds of the general formula (I) according to Table 1 on various harmful plants and an application rate corresponding to 80 g/ha, which were obtained by the experimental procedure mentioned above.
# Echinochloa crus-galli [26] = assay: Pre-emergence herbicide efficacy at 80 g/ha, ECHCG; conditions: scored visually after about 3 weeks vs untreated controls, 100% = plants have died
# Description: as §2, §9, §10
# Kochia scoparia [27] = assay: Pre-emergence herbicide efficacy at 80 g/ha, KCHSC; conditions: scored visually after about 3 weeks vs untreated controls, 100% = plants have died
# Description: as §2, §9, §10
# Matricaria inodora [28] = assay: Pre-emergence herbicide efficacy at 80 g/ha, MATIN; conditions: scored visually after about 3 weeks vs untreated controls, 100% = plants have died
# Description: as §2, §9, §10
# Polygonum convolvulus = assay: Pre-emergence herbicide efficacy at 80 g/ha, POLCO; conditions: scored visually after about 3 weeks vs untreated controls, 100% = plants have died
# Description: as §2, §9, §10
# Setaria viridis [29] = assay: Pre-emergence herbicide efficacy at 80 g/ha, SETVI
# Procedure, shortened: as §8
# Veronica persica [30] = assay: Pre-emergence herbicide efficacy at 80 g/ha, VERPE
# Description: as §2, §9, §10
# Viola tricolor [31] = assay: Pre-emergence herbicide efficacy at 80 g/ha, VIOTR
# Procedure, shortened: as §8
compound,measurement,setting,value
N#Cc1cccc(Nc2ncc(F)cn2)c1-n1cc(C(F)(F)F)cn1 [Example 1-60],Post-emergence efficacy at 320 g/ha against ABUTH in %,Abutilon theophrasti [1],90%
same,Post-emergence efficacy at 320 g/ha against AMARE in %,Amaranthus retroflexus [2],100%
same,Post-emergence efficacy at 320 g/ha against DIGSA in %,Digitaria sanguinalis [3],90%
same,Post-emergence efficacy at 320 g/ha against ECHCG in %,Echinochloa crus-galli [4],100%
same,Post-emergence efficacy at 320 g/ha against KCHSC in %,Kochia scoparia [5],100%
same,Post-emergence efficacy at 320 g/ha against POAAN in %,Poa annua [6],100%
same,Post-emergence efficacy at 320 g/ha against SETVI in %,Setaria viridis [7],90%
same,Post-emergence efficacy at 320 g/ha against STEME in %,Stellaria media [8],100%
same,Post-emergence efficacy at 320 g/ha against VERPE in %,Veronica persica [9],100%
same,Post-emergence efficacy at 80 g/ha against AMARE in %,Amaranthus retroflexus [10],90%
same,Post-emergence efficacy at 80 g/ha against KCHSC in %,Kochia scoparia [11],100%
same,Post-emergence efficacy at 80 g/ha against VERPE in %,Veronica persica [12],100%
same,Post-emergence efficacy at 80 g/ha against VIOTR in %,Viola tricolor [13],90%
same,Pre-emergence efficacy at 320 g/ha against ABUTH in %,Abutilon theophrasti [14],90%
same,Pre-emergence efficacy at 320 g/ha against AMARE in %,Amaranthus retroflexus [15],100%
same,Pre-emergence efficacy at 320 g/ha against DIGSA in %,Digitaria sanguinalis [16],100%
same,Pre-emergence efficacy at 320 g/ha against ECHCG in %,Echinochloa crus-galli [17],90%
same,Pre-emergence efficacy at 320 g/ha against KCHSC in %,Kochia scoparia [18],100%
same,Pre-emergence efficacy at 320 g/ha against LOLRI in %,Lolium rigidum,90%
same,Pre-emergence efficacy at 320 g/ha against MATIN in %,Matricaria inodora [19],100%
same,Pre-emergence efficacy at 320 g/ha against POAAN in %,Poa annua [20],100%
same,Pre-emergence efficacy at 320 g/ha against SETVI in %,Setaria viridis [21],90%
same,Pre-emergence efficacy at 320 g/ha against STEME in %,Stellaria media [22],100%
same,Pre-emergence efficacy at 320 g/ha against VERPE in %,Veronica persica [23],100%
same,Pre-emergence efficacy at 80 g/ha against AMARE in %,Amaranthus retroflexus [24],100%
same,Pre-emergence efficacy at 80 g/ha against DIGSA in %,Digitaria sanguinalis [25],100%
same,Pre-emergence efficacy at 80 g/ha against ECHCG in %,Echinochloa crus-galli [26],80%
same,Pre-emergence efficacy at 80 g/ha against KCHSC in %,Kochia scoparia [27],100%
same,Pre-emergence efficacy at 80 g/ha against MATIN in %,Matricaria inodora [28],100%
same,Pre-emergence efficacy at 80 g/ha against POLCO in %,Polygonum convolvulus,100%
same,Pre-emergence efficacy against SETVI,Setaria viridis [29],100%
same,Pre-emergence efficacy against VERPE,Veronica persica [30],80%
same,Pre-emergence efficacy against VIOTR,Viola tricolor [31],100%
